In assay [1] the test system is PC12 cells. As to the kind of experiment: Inclusion formation of tNhtt-60Q-Venus with or without HSC70bm in PC12 cells. It counts as cell-based, rat. Particulars: 10 mM 3MA, 10 μM pepstatin A.
Experimental: The tNhtt-16Q-EGFP and tNhtt-150Q-EGFP plasmids for transient transfection were prepared by the introduction of the coding sequence into pcDNA3.1 vector (Invitrogen). […] HSC70bm were amplified with primers containing SalI in the forward and XmaI cutting site in the reverse primer from the 60QHsc construct. […] To produce molecules without mRFP tag, all constructs were amplified using primers containing BamHI in the forward and XbaI in the reverse primer, respectively, and introduced to pcDNA3.1 vector.
Rat pheochromocytoma (PC12) cells were grown in the same conditions as Neuro2a cells, except for the serum composition of 5% of fetal bovine and 10% of horse serum (Sigma). […]
In each well, at least 10000 cells were counted and quantified for the presence of the inclusions. […] The screening itself consisted of two scans using Hoechst, FITC (for GFP) and TRITC (for RFP) fluorescence. […] The percentage of the cells with aggregates was then calculated. When the constructs without mRFP were used for transfection, the procedure was same, except the RFP intensity was not measured. […]
The test system of assay [2] is polyQ inclusions in 150Q Neuro2a cells. As to the kind of experiment: Confocal imaging of tested constructs in 150Q Neuro2a cells. It counts as cell-based, mouse. As for the experimental part:
(§1) Mouse neuroblastoma (Neuro2a) cells were maintained in Dulbecco's modified Eagle's medium (Sigma) supplemented with 10% heat-inactivated fetal bovine serum (Sigma), 100 U/ml penicillin and 100 μg/ml streptomycin (Invitrogen) at 37° C. in an atmosphere containing 5% CO2 and 95% air. Establishment of stable Neuro2a cell lines with the ecdysone-inducible mammalian expression system (Invitrogen), that express tNhtt-EGFP-16Q (16Q Neuro2a cells), tNhtt-EGFP-150Q (150Q Neuro2a cells) and tNhtt-EGFP-150Q-nls (150Q-nls Neuro2a cells) has been described earlier (T. Nagai et al., supra, H. Doi et al., supra, E. A. Zemskov et al., J Neurochem. 87, 2 (2003)). Neuro2a cells were differentiated with 5mM dbcAMP (N^6, 2′-O-dibutyryladenosine-3′,5′-cyclic monophosphate sodium salt) (Nacalai Tesque) and induced to express tNhtt-polyQ with 2 μM ponasterone A (ponA; Invitrogen) for indicated times. Neuro2a/FRT/TR cell line was generated as described in the protocol for Flp-in/T-Rex system (Invitrogen). Neuro2a tNhtt-62Q-kikGR cell line was generated by transfecting Neuro2a/FRT/TR cells with the pFRT-HD62-KikGR and pOG44 (Invitrogen) constructs using Lipofectamine 2000 reagent and selected with 200 μg/ml hygromycin. The expression of the pFRT-tNhtt-62Q-KikGR was induced by 18 doxycycline treatment of the cells. For the photo-induced kikGR cleavage, cells were exposed to ˜400 nm wavelength for 5 minutes. […]

Assay [3] concerns tNhtt-16Q. As to the kind of experiment: Western blot of tNhtt-16Q levels in inducible Neuro2a cells. It counts as cell-based, human. Conditions: inducible 16Q Neuro2a cells, transfection. As for the experimental part:
as §1, with “(Invitrogen).” for “(Invitrogen). Neuro2a tNhtt-62Q-kikGR cell line was generated by transfecting Neuro2a/FRT/TR cells with the pFRT-HD62-KikGR and pOG44 (Invitrogen) constructs using Lipofectamine 2000 reagent and selected with 200 μg/ml hygromycin. The expression of the pFRT-tNhtt-62Q-KikGR was induced by 18 doxycycline treatment of the cells. For the photo-induced kikGR cleavage, cells were exposed to ˜400 nm wavelength for 5 minutes.”
(§2) Cells were washed twice with ice-cold PBS, scraped, and resuspended in lysis buffer (0.5% Triton X-100 in PBS, 0.5 mM phenylmethylsulfonyl fluoride, Complete protease inhibitor mixture (Roche Applied Sciences)). […] Immunoreactive proteins were detected with enhanced chemiluminescence reagents (Amersham Biosciences). […]
(A western blot detects proteins with antibodies after separation by electrophoresis.)

Assay [4] deals with polyQ inclusions in 150Q-nls Neuro2a cells (tNhtt-EGFP-150Q-nls). As to the kind of experiment: ArrayScan quantification of polyQ inclusion formation in inducible 150Q-nls Neuro2a cells. Conditions: 150Qnls Neuro2a cells, mRFP-tagged constructs, after 48 hours of differentiation and induction. It counts as cell-based, mouse. As for the experimental part: as §1
(§3) For the quantification of the inclusions, cells were grown in 24-well plates for indicated periods, fixed in 4% paraformaldehyde, washed and incubated with Hoechst 33258 at 1/1000 dilution in PBS. Cells were analyzed by ArrayScan® V^TI High Content Screening (HSC) Reader (Cellomics) using Target Activation BioApplication (TABA). TABA analyzes images acquired by a HSC Reader and provides measurements of the intracellular fluorescence intensity and localization on a cell-by-cell basis.
In each well, at least 10000 cells were counted and quantified for the presence of the inclusions. Nuclei stained with Hoechst 33285 provided the autofocus target and their count gave the exact number of the quantified cells. The screening itself consisted of two scans using Hoechst, FITC (for GFP) and TRITC (for RFP) fluorescence. Firstly, number of inclusions in transfected cells was calculated when fluorescent spots at size of at least 5 pixels (magnification 20× for cytoplasmic and 40× for nuclear aggregates) with average GFP intensity more than 1500 in the RFP background were counted. […] The percentage of the cells with aggregates was then calculated. When the constructs without mRFP were used for transfection, the procedure was same, except the RFP intensity was not measured. […] Data was generated from the quantification of more than 250,000 cells in each experimental set-up.

Assay [5] addresses T1, tNhtt-150Q (Homo sapiens, UniProt P42858).
T1 construct: N-terminal fragment of human huntington exon 1 (tNhtt); expressed in transfected cells
As to the kind of experiment: Western blot of polyQ aggregation (gel top) in 150Q Neuro2a cells. Particulars: expression of mRFP-tagged constructs. It counts as cell-based. As for the experimental part: as §1, with “(Invitrogen).” for “(Invitrogen). Neuro2a tNhtt-62Q-kikGR cell line was generated by transfecting Neuro2a/FRT/TR cells with the pFRT-HD62-KikGR and pOG44 (Invitrogen) constructs using Lipofectamine 2000 reagent and selected with 200 μg/ml hygromycin. The expression of the pFRT-tNhtt-62Q-KikGR was induced by 18 doxycycline treatment of the cells. For the photo-induced kikGR cleavage, cells were exposed to ˜400 nm wavelength for 5 minutes.”
as §2

Assay [6] has as its system polyQ inclusions in 150Q Neuro2a cells (tNhtt-EGFP-150Q). Briefly: ArrayScan quantification of polyQ inclusion formation in inducible 150Q Neuro2a cells. It counts as cell-based, mouse. Particulars: mRFP-tagged constructs, after 24 hours of differentiation and induction. As for the experimental part: Mouse neuroblastoma (Neuro2a) cells were maintained in Dulbecco's modified Eagle's medium (Sigma) supplemented with 10% heat-inactivated fetal bovine serum (Sigma), 100 U/ml penicillin and 100 μg/ml streptomycin (Invitrogen) at 37° C. in an atmosphere containing 5% CO2 and 95% air. Establishment of stable Neuro2a cell lines with the ecdysone-inducible mammalian expression system (Invitrogen), that express tNhtt-EGFP-16Q (16Q Neuro2a cells), tNhtt-EGFP-150Q (150Q Neuro2a cells) and tNhtt-EGFP-150Q-nls (150Q-nls Neuro2a cells) has been described earlier (T. Nagai et al., supra, H. Doi et al., supra, E. A. Zemskov et al., J Neurochem. 87, 2 (2003)). Neuro2a cells were differentiated with 5mM dbcAMP (N^6, 2′-O-dibutyryladenosine-3′,5′-cyclic monophosphate sodium salt) (Nacalai Tesque) and induced to express tNhtt-polyQ with 2 μM ponasterone A (ponA; Invitrogen) for indicated times. Neuro2a/FRT/TR cell line was generated as described in the protocol for Flp-in/T-Rex system (Invitrogen). Neuro2a tNhtt-62Q-kikGR cell line was generated by transfecting Neuro2a/FRT/TR cells with the pFRT-HD62-KikGR and pOG44 (Invitrogen) constructs using Lipofectamine 2000 reagent and selected with 200 μg/ml hygromycin. The expression of the pFRT-tNhtt-62Q-KikGR was induced by 18 doxycycline treatment of the cells. For the photo-induced kikGR cleavage, cells were exposed to ˜400 nm wavelength for 5 minutes. Rat pheochromocytoma (PC12) cells were grown in the same conditions as Neuro2a cells, except for the serum composition of 5% of fetal bovine and 10% of horse serum (Sigma). All transient transfections were performed with Lipofectamine 2000 (Invitrogen) according to the manufacturer's instruction.
as §3
In each well, at least 10000 cells were counted and quantified for the presence of the inclusions. Nuclei stained with Hoechst 33285 provided the autofocus target and their count gave the exact number of the quantified cells. The screening itself consisted of two scans using Hoechst, FITC (for GFP) and TRITC (for RFP) fluorescence. Firstly, number of inclusions in transfected cells was calculated when fluorescent spots at size of at least 5 pixels (magnification 20× for cytoplasmic and 40× for nuclear aggregates) with average GFP intensity more than 1500 in the RFP background were counted. Secondly, nuclei were defined as the objects of interest and the cells with average intensity more than 50 within 3 pixels from the nucleus were selected for the analysis. The percentage of the cells with aggregates was then calculated. When the constructs without mRFP were used for transfection, the procedure was same, except the RFP intensity was not measured. Scanning was performed with triplicate or quadruplicate in each experimental condition. Data was generated from the quantification of more than 250,000 cells in each experimental set-up.

Square brackets hold non-standard residues; d marks the D form. Ends that are not written are not given here. Peptide text beside a SMILES is read from it. * marks the point of attachment. Sta = CC(C)C[C@H](N)[C@@H](O)CC(=O)O; Isovaleryl = CC(C)CC(=O)*

T1 sequence (P42858 with tags, fused parts or gaps): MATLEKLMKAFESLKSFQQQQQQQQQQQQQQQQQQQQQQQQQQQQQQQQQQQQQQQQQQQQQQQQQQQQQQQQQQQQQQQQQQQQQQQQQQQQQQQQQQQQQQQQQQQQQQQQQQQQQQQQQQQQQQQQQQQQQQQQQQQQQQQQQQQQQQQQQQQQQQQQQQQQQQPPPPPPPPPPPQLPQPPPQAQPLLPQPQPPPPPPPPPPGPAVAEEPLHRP

Turning to `CC(C)CC(=O)N[C@H](C(=O)N[C@H](C(=O)N[C@@H](CC(C)C)[C@@H](O)CC(=O)N[C@@H](C)C(=O)N[C@@H](CC(C)C)[C@@H](O)CC(=O)O)C(C)C)C(C)C` [pepstatin A] (Isovaleryl-VV[Sta]A[Sta]-OH), in assay [1], the “influence of inhibitor on the effect of HSC70bm on 60Q aggregation” value was “alleviated the effect of HSC70bm”.

Consider `Cn1cnc(N)c2ncnc1-2` [3MA, 3-methyladenine], for which, in assay [1], the “influence of inhibitor on the effect of HSC70bm on 60Q aggregation” value is on record as “did not”.

Regarding “mRFP-(QBP1)2 (MSNWKWWPGIFDSNWKWWPGIFD; also: fused to mRFP) [RQ, monomeric red fluorescent protein fused to (QBP1)2, reference compound]”, in assay [2], the “localization relative to polyQ inclusions” value is “co-localized with the polyQ inclusions”. Moreover, the “levels of tNhtt-16Q” value in assay [3] is reported as “not affected”. In addition, the “decrease of the polyQ inclusion formation” value in assay [4] is 21.5%. Further, the “polyQ aggregation (gel top)” value in assay [5] is “markedly decreased”. The “decrease of inclusion formation” value in assay [6] worked out at 38%.

Source of the values: patent US20100016221A1, “METHOD OF DEGRADING PROTEIN BY CHAPERONE-MEDIATED AUTOPHAGY” (RIKEN, priority 2008, published 2010).
